According to ChEMBL document CHEMBL5550210, “Discovery of Novel α,β-Unsaturated Amide Derivatives as Candidate Antifungals to Overcome Fungal Resistance” (J Med Chem, 2024):
≈ marks a conversion by molar mass, not a printed value. Calls of active or inactive are those of the source. The rule behind the calls is not given here.

How the values were obtained:
[1] = test system: Candida tropicalis; experiment: Antifungal activity against Candida tropicalis CGMCC 2.3739 assessed as inhibition of fungal growth by CLSI protocol based microdilution method; type: functional
[2] = test system: Candida albicans; experiment: Antifungal activity against fluconazole-resistant Candida albicans CaR assessed as inhibition of fungal growth by CLSI based microdilution method; type: functional
[3] = test system: Candida albicans; experiment: Antifungal activity against fluconazole-resistant Candida albicans 901 assessed as inhibition of fungal growth by CLSI based microdilution method; type: functional
[4] = test system: Aspergillus fumigatus; experiment: Antifungal activity against Aspergillus fumigatus CGMCC 3.7795 assessed as inhibition of fungal growth by CLSI protocol based microdilution method; type: functional
[5] = test system: Candida albicans; experiment: Antifungal activity against Candida albicans CPCC400616 assessed as inhibition of fungal growth by CLSI protocol based microdilution method; type: functional
[6] = test system: Candida albicans; experiment: Antifungal activity against fluconazole-resistant Candida albicans 632 assessed as inhibition of fungal growth by CLSI based microdilution method; type: functional
[7] = test system: Candida albicans; experiment: Antifungal activity against fluconazole-resistant Candida albicans 17 assessed as inhibition of fungal growth by CLSI based microdilution method; type: functional
[8] = test system: Cryptococcus neoformans; experiment: Antifungal activity against Cryptococcus neoformans CGMCC2.3161 assessed as inhibition of fungal growth by CLSI protocol based microdilution method; type: functional
[9] = test system: Pichia kudriavzevii; experiment: Antifungal activity against Candida krusei AS 2.1045 assessed as inhibition of fungal growth by CLSI protocol based microdilution method; type: functional
[10] = test system: Nakaseomyces glabratus; experiment: Antifungal activity against Candida glabrata assessed as inhibition of fungal growth by CLSI protocol based microdilution method; type: functional
[11] = test system: Candida parapsilosis; experiment: Antifungal activity against Candida parapsilosis ATCC 22019 assessed as inhibition of fungal growth by CLSI protocol based microdilution method; type: functional; conditions: Lodderomyces parapsilosis
[12] = test system: Candida albicans; experiment: Antifungal activity against Candida albicans SC5314 assessed as inhibition of fungal growth by CLSI protocol based microdilution method; type: functional
[13] = test system: Candida albicans; experiment: Antifungal activity against fluconazole-resistant Candida albicans 904 assessed as inhibition of fungal growth by CLSI based microdilution method; type: functional
[14] = Half life in mouse plasma measured at 180 mins; type: ADME, cell-free
[15] = target: T1, Lanosterol 14-alpha demethylase (Candida albicans (strain SC5314 / ATCC MYA-2876) (Yeast), UniProt P10613); experiment: Inhibition of CYP51 in Candida albicans SC5314 assessed as increase in eburicol level at 0.031 ug/ml incubated for 24 hrs by GC-MS analysis relative to control; conditions: at 0.031 µg/mL
[16] = test system: Candida albicans; experiment: Antifungal activity against Candida albicans SC5314 assessed as fungal cell membrane injury at 16 ug/ml incubated for 24 hrs by transmission electron microscopic analysis; type: functional, organism-based; conditions: dose 16.0 µg/ml
[17] = test system: Candida albicans; experiment: Antifungal activity against Candida albicans assessed as inhibition of fungal growth by CLSI protocol based microdilution method; type: functional
[18] = test system: Candida albicans; experiment: Antifungal activity against Candida albicans SC5314 assessed as leakage of endogenous substances at 16 ug/ml incubated for 24 hrs by transmission electron microscopic analysis; type: functional, organism-based; conditions: dose 16.0 µg/ml
[19] = Metabolic stability in mouse liver microsomes assessed as half life; type: ADME, Microsome
[20] = target: T1, Lanosterol 14-alpha demethylase; experiment: Inhibition of CYP51 in Candida albicans SC5314 assessed as reduction in ergosterol content at 0.031 ug/ml incubated for 24 hrs by GC-MS analysis relative to control; conditions: at 0.031 µg/mL
[21] = test system: Candida albicans; experiment: Fungicidal activity against Candida albicans assessed as inhibition of fungal growth measured after 48 hrs by CLSI protocol based microdilution method; type: functional
[22] = target: T1, Lanosterol 14-alpha demethylase; experiment: Inhibition of CYP51 in Candida albicans SC5314 assessed as increase in obtusifoliol level at 0.031 ug/ml incubated for 24 hrs by GC-MS analysis relative to control; conditions: at 0.031 µg/mL
[23] = target: T1, Lanosterol 14-alpha demethylase; experiment: Inhibition of CYP51 in Candida albicans SC5314 assessed as increase in lanosterol level at 0.031 ug/ml incubated for 24 hrs by GC-MS analysis relative to control; conditions: at 0.031 µg/mL
[24] = Stability in mouse plasma assessed as parent compound remaining measured at 180 mins; type: ADME, cell-free; conditions: read-out: Stability

T1 sequence (P10613 whole entry): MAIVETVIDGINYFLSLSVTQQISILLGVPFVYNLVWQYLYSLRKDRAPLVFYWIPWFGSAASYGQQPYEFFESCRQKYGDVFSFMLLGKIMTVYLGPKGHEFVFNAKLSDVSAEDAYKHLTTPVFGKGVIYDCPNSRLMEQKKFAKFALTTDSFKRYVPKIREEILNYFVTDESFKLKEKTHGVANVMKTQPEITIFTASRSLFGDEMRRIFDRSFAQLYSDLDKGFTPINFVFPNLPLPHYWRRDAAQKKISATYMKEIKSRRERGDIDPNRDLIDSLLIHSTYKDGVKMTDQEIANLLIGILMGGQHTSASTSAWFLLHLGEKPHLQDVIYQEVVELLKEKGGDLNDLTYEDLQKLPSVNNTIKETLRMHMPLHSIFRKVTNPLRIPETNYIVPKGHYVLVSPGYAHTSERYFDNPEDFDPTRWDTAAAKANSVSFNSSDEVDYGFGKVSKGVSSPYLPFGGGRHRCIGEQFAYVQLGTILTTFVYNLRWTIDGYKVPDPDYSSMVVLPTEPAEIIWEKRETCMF

## O=C(/C=C/c1ccc(COC(Cn2ccnc2)c2ccc(Cl)cc2Cl)cc1)NC1CC1 (configuration not stated)
[1]
  MIC: 4 µg/mL (≈ 8.76 µM)
[2]
  MIC: 128 µg/mL (≈ 280 µM)
[3]
  MIC: 2 µg/mL (≈ 4.38 µM)
[4]
  MIC: 2 µg/mL (≈ 4.38 µM)
[5]
  MIC: 0.25 µg/mL (≈ 0.548 µM)
[6]
  MIC: 1 µg/mL (≈ 2.19 µM)
[7]
  MIC: 32 µg/mL (≈ 70.1 µM)
[8]
  MIC: 16 µg/mL (≈ 35.1 µM)
[9]
  MIC: 64 µg/mL (≈ 140 µM)
[10]
  MIC: 64 µg/mL (≈ 140 µM)
[11]
  MIC: 1 µg/mL (≈ 2.19 µM)
[12]
  MIC: 0.125 µg/mL (≈ 0.274 µM)
[13]
  MIC: 4 µg/mL (≈ 8.76 µM)

## O=C(/C=C/c1ccc(COC(Cn2ccnc2)c2ccc(Cl)cc2Cl)cc1)Nc1cccc(Cl)c1 (configuration not stated)
[1]
  MIC: 32 µg/mL (≈ 60.7 µM)
[2]
  MIC: 128 µg/mL (≈ 243 µM)
[3]
  MIC: 4 µg/mL (≈ 7.59 µM)
[4]
  MIC: 16 µg/mL (≈ 30.4 µM)
[5]
  MIC: 0.125 µg/mL (≈ 0.237 µM)
[6]
  MIC: 2 µg/mL (≈ 3.8 µM)
[7]
  MIC: 128 µg/mL (≈ 243 µM)
[8]
  MIC: 16 µg/mL (≈ 30.4 µM)
[9]
  MIC: 64 µg/mL (≈ 121 µM)
[10]
  MIC: 64 µg/mL (≈ 121 µM)
[11]
  MIC: 0.125 µg/mL (≈ 0.237 µM)
[12]
  MIC: 0.06 µg/mL (≈ 0.114 µM)
[13]
  MIC: 2 µg/mL (≈ 3.8 µM)

## CC(C)NC(=O)/C=C/c1ccc(COC(Cn2ccnc2)c2ccc(Cl)cc2Cl)cc1 (configuration not stated)
[1]
  MIC: 4 µg/mL (≈ 8.73 µM)
[2]
  MIC: 16 µg/mL (≈ 34.9 µM)
[3]
  MIC: 4 µg/mL (≈ 8.73 µM)
[4]
  MIC: 2 µg/mL (≈ 4.36 µM)
[5]
  MIC: 0.125 µg/mL (≈ 0.273 µM)
[6]
  MIC: 1 µg/mL (≈ 2.18 µM)
[7]
  MIC: 16 µg/mL (≈ 34.9 µM)
[8]
  MIC: 8 µg/mL (≈ 17.5 µM)
[9]
  MIC: 4 µg/mL (≈ 8.73 µM)
[10]
  MIC: 4 µg/mL (≈ 8.73 µM)
[11]
  MIC: 2 µg/mL (≈ 4.36 µM)
[12]
  MIC: 0.5 µg/mL (≈ 1.09 µM)
[13]
  MIC: 8 µg/mL (≈ 17.5 µM)

## Clc1ccc(COC(Cn2ccnc2)c2ccc(Cl)cc2Cl)c(Cl)c1 (configuration not stated) [MICONAZOLE]
[1]
  MIC: 1 µg/mL (≈ 2.4 µM)
[4]
  MIC: 2 µg/mL (≈ 4.81 µM)
[5]
  MIC: 0.25 µg/mL (≈ 0.601 µM)
[8]
  MIC: 0.25 µg/mL (≈ 0.601 µM)
[14]
  half-life: > 6 h
[9]
  MIC: 0.5 µg/mL (≈ 1.2 µM)
[10]
  MIC: 0.5 µg/mL (≈ 1.2 µM)
[11]
  MIC: 0.25 µg/mL (≈ 0.601 µM)
[12]
  MIC: 0.03 µg/mL (≈ 0.0721 µM)

## CCCNC(=O)/C=C/c1ccc(COC(Cn2ccnc2)c2ccc(Cl)cc2Cl)cc1 (configuration not stated)
[1]
  MIC: 8 µg/mL (≈ 17.5 µM)
[2]
  MIC: 64 µg/mL (≈ 140 µM)
[3]
  MIC: 16 µg/mL (≈ 34.9 µM)
[4]
  MIC: 4 µg/mL (≈ 8.73 µM)
[5]
  MIC: 0.06 µg/mL (≈ 0.131 µM)
[6]
  MIC: 2 µg/mL (≈ 4.36 µM)
[7]
  MIC: 32 µg/mL (≈ 69.8 µM)
[8]
  MIC: 4 µg/mL (≈ 8.73 µM)
[9]
  MIC: 4 µg/mL (≈ 8.73 µM)
[10]
  MIC: 8 µg/mL (≈ 17.5 µM)
[11]
  MIC: 0.125 µg/mL (≈ 0.273 µM)
[12]
  MIC: 0.03 µg/mL (≈ 0.0654 µM)
[13]
  MIC: 16 µg/mL (≈ 34.9 µM)

## O=C(/C=C/c1ccc(COC(Cn2ccnc2)c2ccc(Cl)cc2Cl)cc1)Nc1ccc(F)cc1 (configuration not stated)
[1]
  MIC: 2 µg/mL (≈ 3.92 µM)
[2]
  MIC: 4 µg/mL (≈ 7.84 µM)
[3]
  MIC: 1 µg/mL (≈ 1.96 µM)
[4]
  MIC: 1 µg/mL (≈ 1.96 µM)
[5]
  MIC: 0.06 µg/mL (≈ 0.118 µM)
[6]
  MIC: 0.25 µg/mL (≈ 0.49 µM)
[7]
  MIC: 128 µg/mL (≈ 251 µM)
[8]
  MIC: 2 µg/mL (≈ 3.92 µM)
[9]
  MIC: 64 µg/mL (≈ 125 µM)
[10]
  MIC: 32 µg/mL (≈ 62.7 µM)
[11]
  MIC: 32 µg/mL (≈ 62.7 µM)
[12]
  MIC: 0.03 µg/mL (≈ 0.0588 µM)
[13]
  MIC: 0.5 µg/mL (≈ 0.98 µM)

## O=C(/C=C/c1ccc(COC(Cn2ccnc2)c2ccc(Cl)cc2Cl)cc1)Nc1ccc(Cl)cc1 (configuration not stated)
[1]
  MIC: 1 µg/mL (≈ 1.9 µM)
[2]
  MIC: 8 µg/mL (≈ 15.2 µM)
[3]
  MIC: 1 µg/mL (≈ 1.9 µM)
[4]
  MIC: 0.5 µg/mL (≈ 0.949 µM)
[5]
  MIC: 0.06 µg/mL (≈ 0.114 µM)
[6]
  MIC: 0.5 µg/mL (≈ 0.949 µM)
[7]
  MIC: 128 µg/mL (≈ 243 µM)
[8]
  MIC: 2 µg/mL (≈ 3.8 µM)
[9]
  MIC: 4 µg/mL (≈ 7.59 µM)
[10]
  MIC: 8 µg/mL (≈ 15.2 µM)
[11]
  MIC: 0.125 µg/mL (≈ 0.237 µM)
[12]
  MIC: 0.03 µg/mL (≈ 0.0569 µM)
[13]
  MIC: 0.5 µg/mL (≈ 0.949 µM)

## Cc1ccccc1NC(=O)/C=C/c1ccc(COC(Cn2ccnc2)c2ccc(Cl)cc2Cl)cc1 (configuration not stated)
[1]
  MIC: 16 µg/mL (≈ 31.6 µM)
[2]
  MIC: 16 µg/mL (≈ 31.6 µM)
[3]
  MIC: 4 µg/mL (≈ 7.9 µM)
[4]
  MIC: 2 µg/mL (≈ 3.95 µM)
[5]
  MIC: 0.125 µg/mL (≈ 0.247 µM)
[6]
  MIC: 2 µg/mL (≈ 3.95 µM)
[7]
  MIC: 128 µg/mL (≈ 253 µM)
[8]
  MIC: 2 µg/mL (≈ 3.95 µM)
[9]
  MIC: 16 µg/mL (≈ 31.6 µM)
[10]
  MIC: 64 µg/mL (≈ 126 µM)
[11]
  MIC: 0.5 µg/mL (≈ 0.987 µM)
[12]
  MIC: 0.03 µg/mL (≈ 0.0592 µM)
[13]
  MIC: 2 µg/mL (≈ 3.95 µM)

## OC(Cn1cncn1)(Cn1cncn1)c1ccc(F)cc1F [FLUCONAZOLE]
[15]
  inhibition (INH): Active
[1]
  MIC: 2 µg/mL (≈ 6.53 µM)
[16]
  Activity: Active
[2]
  MIC: > 128 µg/mL
[17]
  MIC: > 128 µg/mL
[18]
  Activity: Active
[3]
  MIC: > 128 µg/mL
[4]
  MIC: > 128 µg/mL
[19]
  half-life: > 2 h
[5]
  MIC: 4 µg/mL (≈ 13.1 µM)
[20]
  inhibition (INH): 48.4%
[6]
  MIC: > 128 µg/mL
[7]
  MIC: > 128 µg/mL
[8]
  MIC: 4 µg/mL (≈ 13.1 µM)
[14]
  half-life: > 6 h
[9]
  MIC: 32 µg/mL (≈ 104 µM)
[21]
  MFC: > 128 µg/mL
[10]
  MIC: 32 µg/mL (≈ 104 µM)
[22]
  inhibition (INH): Active
[11]
  MIC: 4 µg/mL (≈ 13.1 µM)
[23]
  inhibition (INH): Active
[12]
  MIC: 0.5 µg/mL (≈ 1.63 µM)
[24]
  remaining at 3 h: 116%
[13]
  MIC: > 128 µg/mL

## O=C(/C=C/c1ccc(COC(Cn2ccnc2)c2ccc(Cl)cc2Cl)cc1)Nc1ccc(C(F)(F)F)cc1 (configuration not stated)
[1]
  MIC: 64 µg/mL (≈ 114 µM)
[2]
  MIC: 64 µg/mL (≈ 114 µM)
[3]
  MIC: 16 µg/mL (≈ 28.6 µM)
[4]
  MIC: 32 µg/mL (≈ 57.1 µM)
[5]
  MIC: 0.03 µg/mL (≈ 0.0535 µM)
[6]
  MIC: 2 µg/mL (≈ 3.57 µM)
[7]
  MIC: 128 µg/mL (≈ 228 µM)
[8]
  MIC: 2 µg/mL (≈ 3.57 µM)
[9]
  MIC: 64 µg/mL (≈ 114 µM)
[10]
  MIC: 32 µg/mL (≈ 57.1 µM)
[11]
  MIC: 0.5 µg/mL (≈ 0.892 µM)
[12]
  MIC: 0.03 µg/mL (≈ 0.0535 µM)
[13]
  MIC: 8 µg/mL (≈ 14.3 µM)
